Assay results published in patent US10472334B2, “Small molecules for inhibiting male fertility” (The University of North Carolina at Chapel Hill, priority 2014, dated 2019).
Where two headings read alike, the source gives them in different places. Values belong to the molecule of their own block, whether it stands above or below them.

System: human sperm motility
Assay: Computer-assisted sperm analysis (CASA) of human sperm motility
Type: cell-based
Protocol: In another embodiment, a computer-assisted sperm analysis (CASA) can be used as a live cell compound screen for determining the effect of compounds on human sperm motility. Additionally, to facilitate the IC50 evaluation of compounds using different ejaculates, reducing inter-assay variation due to differences in sperm quality in different semen samples, an index of relative motility inhibition (RMI) was developed.
This is calculated as: RMI=[% motility*VSL]; percentage of motile sperm (% motility) or the percentage of progressively motile sperm (% progressive motility, RPMI) multiplied by the straight-line velocity (VSL); the average velocity measured in a straight line from the beginning to the end of a track in μm/sec.
Normalized RMI can be calculated by dividing the RMI of each experimental condition by its respective DMSO control.
Computer-assisted sperm analysis (CASA) was used as a live cell compound screen for determining the effect of compounds on human sperm motility. Computer-assisted sperm analysis (CASA) was performed using the approach taught in Mitra et al., Biology of Reproduction, Vol. 82, p 491 (2010), to determine the parameters of the control versus compound-treated spermatozoa. The parameters measured are: average pathway velocity (VAP: the average velocity of the smoothed cell path in 1 m/sec), the straight-line velocity (VSL: the average velocity measured in a straight line from the beginning to the end of track in 1 m/sec), the curvilinear velocity (VCL: the average velocity measured over the actual point-to-point track of the cell in 1 m/sec), the lateral head amplitude (ALH: amplitude of lateral head displacement in 1 m), the beat cross-frequency (BCF: frequency of sperm head crossing the sperm average path in Hz), the straightness (STR: the average value of the ratio VSL/VAP in %), and the linearity (LIN: the average value of the ratio VSL/VCL in %). The sperm motility parameters are assessed in pre-warmed (37° C.) two- or four-chambered 20-mm Leja slides, loading 5 μL or 2 μL, respectively, of the samples in each chamber and immediately using CASA. This computerized measuring device included a phase-contrast microscope (Olympus CX41), a camera, a mini-therm stage warmer, an image digitizer, and a computer to store and analyze data. The software used for data analysis is the HTR Ceros 12.3 (Hamilton-Thorne Biosciences). A range of 13 to 20 fields are scanned from each chamber. Progressive cells had to have a minimum of 25 μm/sec VAP and 80% of STR.
To facilitate the IC50 evaluation of compounds using different ejaculates, reducing inter-assay variation due to differences in sperm quality in different semen samples, an index of relative motility inhibition (RMI) was developed. This is calculated as: RMI=[% motility*VSL]; percentage of motile sperm (% motility) or the percentage of progressively motile sperm (% progressive motility, RPMI) multiplied by the straight-line velocity (VSL); the average velocity measured in a straight line from the beginning to the end of a sperm track in μm/sec. Normalized RMI (RPMI) was calculated by dividing the RMI of each experimental condition by its respective DMSO control.
The analysis of sperm motility was carried out with computer-assisted sperm analysis (CASA) (Ceros version 12.3 software; Hamilton-Thorne), using the techniques taught in Mitra et al., Biology of Reproduction, Vol. 82, p 491 (2010).

IC50 (Homo sapiens, Sperm, read-out: CASA): 11.4 µM
Molecule: CCOC(=O)CSc1nc(=O)c(NCC(=O)OC)n[nH]1 [Compound B4, methyl N-{3-[(2-ethoxy-2-oxoethyl)sulfanyl]-5-oxo-2,5-dihydro-1,2,4-triazin-6-yl}glycinate]

IC50 (Homo sapiens, Sperm, FIG. 10, RMI using % progressive motility, read-out: IC50 in terms of progressive motility): ~3.4 µM
Molecule: COC(=O)NNc1nc(Nc2ccc(NC(=O)OC)c(O)c2)nc(SCC(C)=O)n1 [EP012]

IC50 (FIGS. 3 and 4, read-out: IC50, CASA, RMI (relative motility)): ~9 µM | EC50 (calculated EC50 value, read-out: EC50 for inhibiting sperm motility): 8.8 µM
B1: SEMG1: semenogelin protein that binds EPPIN and inhibits progressive motility of ejaculate spermatozoa (protein, UniProt P04279 24-462, looked up)
Semenogelin-1: QKGGSKGRLPSEFSQFPHGQKGQHYSGQKGKQQTESKGSFSIQYTYHVDANDHDQSRKSQQYDLNALHKTTKSQRHLGGSQQLLHNKQEGRDHDKSKGHFHRVVIHHKGGKAHRGTQNPSQDQGNSPSGKGISSQYSNTEERLWVHGLSKEQTSVSGAQKGRKQGGSQSSYVLQTEELVANKQQRETKNSHQNKGHYQNVVEVREEHSSKVQTSLCPAHQDKLQHGSKDIFSTQDELLVYNKNQHQTKNLNQDQQHGRKANKISYQSSSTEERRLHYGENGVQKDVSQSSIYSQTEEKAQGKSQKQITIPSQEQEHSQKANKISYQSSSTEERRLHYGENGVQKDVSQRSIYSQTEKLVAGKSQIQAPNPKQEPWHGENAKGESGQSTNREQDLLSHEQKGRHQHGSHGGLDIVIIEQEDDSDRHLAQHLNNDRNPLFT
